# Measurements published in publication PMC2903893 (Journal of the American Chemical Society, 2009).
# Like-named read-outs stand apart in the source and are kept apart here.
# How the values were obtained:
# [1] = test system: PPK; conditions: read-out: PPK IC50; cited from earlier work
# [2] = test system: PKA; conditions: read-out: PKA IC50; cited from earlier work
# [3] = test system: PKC; conditions: read-out: PKC IC50, cited from earlier work
# [4] = test system: PKCβII; conditions: read-out: PKCβII IC50; ref 29 (ruboxistaurin), 30 (enzastaurin); cited from earlier work
# [5] = test system: PKCβI; conditions: read-out: PKCβI IC50; ref 29 (ruboxistaurin), 30 (enzastaurin); cited from earlier work
# [6] = molecular target: protein kinase C (PKC); assay type: biochemical; conditions: read-out: PKC IC50; whole enzyme with regulatory and catalytic domains
# [7] = cited from earlier work
# [8] = assay type: physicochemical; conditions: 65 °C
# [9] = test system: JHU-012 Head&Neck; test: Cancer cell growth inhibition with and without light, JHU-012; assay type: cell-based; conditions: JHU-012, with vs without light exposure
# [10] = test system: nine cancer cell lines; test: cells; assay type: cell-based
# [11] = Absorption of the perylenequinone chromophore; assay type: physicochemical
compound,measurement,setting,value
"COc1c(C[C@@H](C)OC(=O)Oc2ccc(O)cc2)c2c3c(C[C@@H](C)OC(=O)c4ccccc4)c(OC)c(=O)c4c(O)cc(OC)c(c5c(OC)cc(O)c(c1=O)c52)c43 [1c, Calphostin C, reference compound]",IC50,[1],> 100000 nM
same,IC50,[2],> 100000 nM
same,IC50,[3],50 to 460 nM
Cn1cc(C2=C(c3cn(C4CCN(Cc5ccccn5)CC4)c4ccccc34)C(=O)NC2=O)c2ccccc21 [enzastaurin],IC50,[4],30 nM
same,IC50,[5],30 nM
CN(C)C[C@@H]1CCn2cc(c3ccccc32)C2=C(C(=O)NC2=O)c2cn(c3ccccc23)CCO1 [ruboxistaurin],IC50,[4],[…]
same,IC50,[5],4.7 nM
"COc1c(CC(C)O)c2c3c(CC(C)O)c(OC)c(=O)c4c(O)cc5c(c6c(cc(O)c(c1=O)c62)OCO5)c43 (stereo not shown) [compound 3, Cercosporin]",IC50,[1],> 180000 nM
same,IC50,[6],600 nM
same,IC50,[2],> 500000 nM
same,atropisomerization t1/2,"[7]; 60 °C, DMSO",48 h
same,ΔG^‡ atropisomerization,[7]; acetylacetone,27.0[5] (acetylacetone) kcal/mol
same,ΔG^‡ atropisomerization,[8]; DMSO,28.2 kcal/mol
same,ΔG^‡ atropisomerization,[8]; benzene,27.4 (benzene) kcal/mol
same,ΔG^‡ atropisomerization,"[8]; benzene, listed as cercosporin",27.4 kcal/mol
same,IC50,[3],600 to 1300 nM
same,photopotentiation,[9],4.9 fold
same,CC50,[10]; read-out: CC50 across the series of cell lines,120 to 270 nM
same,ε^670,[11],160 M⁻¹ cm⁻¹
"COc1c2c3c4c(c(OC)c(=O)c5c(O)cc(OC)c(c6c(OC)cc(O)c(c1=O)c63)c54)[C@@H](C(C)=O)[C@@](C)(O)C2 [compound 4, Hypocrellin A]",IC50,[6],4500 nM
same,"growth inhibition, hypocrellin A (4) compared with hypocrellin (ent-4)",[10],nearly identical activity
"COc1c(O)c2c(=O)cc(OC)c3c4c(OC)cc(=O)c5c(O)c(OC)c(CC(C)OC(=O)c6ccccc6)c(c(c1CC(C)OC(=O)c1ccccc1)c23)c54 (stereo not shown) [1a, calphostin A]",IC50,[3]; ref 22b,250 nM
Hypocrellin [ent-4],IC50,[6],400 nM
"COc1c(O)c2c(=O)cc(OC)c3c4c(OC)cc(=O)c5c(O)c(OC)c(CC(C)O)c(c(c1CC(C)O)c23)c54 (single isomer, unassigned; (-)) [(−)-1, Calphostin D]",IC50,"[3]; Table 3 footnote a, ref [23]",6400 nM
